Earlier results on 1 compound are cited in patent US20040229941A1, “Analeptic and antidepressant combinations” (Cephalon, Inc., priority 2003, published 2004).

The conditions of the series: at 6 weeks of antidepressant therapy.

For the compound `CNCCC(Oc1ccc(C(F)(F)F)cc1)c1ccccc1` (stereo not shown) [fluoxetine], the response result is recorded as “about 50%”.
